Reference: patent publication US20240165062A1, “COMPOSITION FOR INCREASING MUSCLE” (YUKI GOSEI KOGYO CO., LTD., priority 2022, published 2024)

Experiments:
[1] = test system: MyHCI gene in C2C12 cells; details: β-alanine added twice at 24 h interval, vs 1×PBS control, FIG. 1
Method: (§1) In this example, β-alanine was added to C2C12 cells and the expression of MyHCI (slow muscle marker), MyHCIIa (fast muscle marker), MyHCIIb (fast muscle marker), and MyHCIIx (fast muscle marker) genes were examined.
(§2) High Pure RNA Isolation Kit (Roche, Basel, Switzerland) was used for total RNA preparation. C2C12 cells were seeded at a concentration of 5.0×10^4 cells/mL in 5 mL Dish. After 24 hours of incubation, β-alanine was added. 1×PBS was added to the control cells at the same volume as the added amount of β-alanine. Twenty-four hours after the addition of 3-alanine, sample was secondary added. After 24 hours of incubation, the culture supernatant was aspirated off. After washing the cells twice with 1×PBS, 1×PBS 200 μL/dish and […] of Lysis/-binding buffer included in High Pure RNA Isolation Kit were added to the entire dish, and the total amount was collected in a 1.5-mL tube. The collected samples were suspended using a vortex mixer for 60 seconds. The filter tube and the collection tube in the kit were assembled, the sample solution was added to the filter tube, and centrifuged at 4° C., 9200×g for 15 seconds. The liquid drained into the collection tube was discarded, and the filter tube and collection tube were assembled again. In a 1.5-mL tube, 90 μL of DNase Incubation Buffer per sample and 10 μL of DNase I per sample were mixed. The mixture was added to the filter tubes and incubated at room temperature for 15 minutes. After incubation, Wash buffer I (500 μL) was added to the filter tubes and centrifuged at 4° C., 9200×g for 15 seconds.

[2] = test system: MyHCIIa gene in C2C12 cells; details: β-alanine added twice at 24 h interval, vs 1×PBS control, FIG. 1
Method: as §1, §2

[3] = test system: MyHCIIb gene in C2C12 cells; details: β-alanine added twice at 24 h interval, vs 1×PBS control, FIG. 1
Method: as §1, §2

[4] = test system: MyHCIIx gene in C2C12 cells; details: β-alanine added twice at 24 h interval, vs 1×PBS control, FIG. 1
Method: as §1, §2

[5] = test system: MyHCI gene in C2C12 cells; details: differentiated C2C12 cells, β-alanine 0.5 mM, 1 mM and 10 mM for 2 days, FIG. 4
Method: (§3) FIG. 4 is graphs showing the mRNA expressions of MyHCI (slow muscle)(A), MyHCIIa (fast muscle)(B), MyHCIIx (fast muscle)(C), and MyHCIIb (fast muscle) (D) measured by RT-qPCR in the C2C12 cells wherein the differentiated C2C12 cells were then treated by addition of 0.5, 1, or 10 (mM) of β-alanine for 2 days.
as §1
(§4) C2C12 cells were seeded in 6-well plates at a concentration of 2.0×10^5 cells/mL, and after 48 hours the medium was replaced with DMEM medium containing 2% Horse Serum (HS) (Thermo Fisher Scientific) to induce differentiation. Further, after 24 hours, the medium was replaced with DMEM medium containing 2% HS. The medium was changed every 2 days thereafter, and further the medium changes and the additions of β-alanine (0.5 mM, 1 mM, or 10 mM) were conducted on the 8th and 9th day after seeding. The cells on 10th day after seeding were used for the experiments. For controls, 1×PBS was added at the same volume as the amount of β-alanine.
(§5) Total RNA preparation and RT-qPCR were performed according to Example 1.

[6] = test system: MyHCIIa gene in C2C12 cells; details: differentiated C2C12 cells, β-alanine 0.5 mM, 1 mM and 10 mM for 2 days, FIG. 4
Method: as §3, §1, §4, §5

[7] = test system: MyHCIIb gene in C2C12 cells; details: differentiated C2C12 cells, β-alanine 1 mM and 10 mM for 2 days, FIG. 4
Method: as §3, §1, §4, §5

[8] = test system: MyHCIIx gene in C2C12 cells; details: differentiated C2C12 cells, β-alanine 1 mM and 10 mM for 2 days, FIG. 4
Method: as §3, §1, §4, §5

MyoD gene in C2C12 cells = details: vs 1×PBS control, FIG. 2
C2C12 cells = details: β-alanine 0.5 mM or 1.0 mM every 2 days, 9 days from induction of differentiation, FIG. 3

How did the “expression of the slow muscle marker MyHCI” value [1] turn out when NCCC(=O)O [β-alanine] was run?
The value was “increased”.

What about the “expression of the fast muscle marker MyHCIIa” value [2] of the same compound?
Its value is “increased”.

And the “expression of the fast muscle marker MyHCIIb” value [3]?
The value was “increased”.

What about the “expression of the fast muscle marker MyHCIIx” value [4] of the same compound?
Its value is “increased”.

What about the “MyHCI (slow muscle marker) mRNA expression” value [5] of the same compound?
The value was “significantly increased”.

And the “MyHCIIa (fast muscle marker) gene expression” value [6]?
Its value is “concentration-dependent enhancement”.

And the “MyHCIIb (fast muscle) mRNA expression” value [7]?
The value was “significantly increased”.

And the “MyHCIIx (fast muscle) mRNA expression” value [8]?
The value was “significantly increased”.

And the “expression of MyoD, a transcriptional regulator of muscle differentiation” value (MyoD gene in C2C12 cells)?
Its value is “increased”.

And the “differentiation of myoblasts into myotube cells” value (C2C12 cells)?
Its value is “promoted”.

What about the “number of myotubular cells” value (C2C12 cells) of the same compound?
Its value is “increased”.

What about the “ratio of slow muscle cells (slow muscle area / myotube area)” value (C2C12 cells) of the same compound?
The value was “increased as the amount of β-alanine increased”.
